Tested on: 889142-216-R-J1-PDC complex spheroid viability
Assay: Anticancer human tumor 889142-216-R-J1-PDC patient-derived bladder carcinoma cell line growth inhibition [POLQ]
Conditions: for IC50: curve of first compound; for viability, T/C: stronger effect = lower value
How it was run: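 Complex spheroid viability model combining PDC tumour cells with endothelial (HUVEC) and MSC stromal cells. Novobiocin, ART-558 or RP6685 were tested singly and in combination with standard and investigational anticancer drugs. Each was titrated in half-log steps from near clinical Cmax, or from 10 microM where Cmax was unknown.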

[1] = second compound 0.0316 µM, first compound 0.0316 µM
[2] = second compound 0.0316 µM, first compound 0.1 µM
[3] = second compound 0.0316 µM, first compound 0.316 µM
[4] = second compound 0.0316 µM, first compound 1 µM
[5] = second compound 0.1 µM, first compound 0.0316 µM
[6] = second compound 0.1 µM, first compound 0.1 µM
[7] = second compound 0.1 µM, first compound 0.316 µM
[8] = second compound 0.1 µM, first compound 1 µM
[9] = second compound 0.316 µM, first compound 0.0316 µM
[10] = second compound 0.316 µM, first compound 0.1 µM
[11] = second compound 0.316 µM, first compound 0.316 µM
[12] = second compound 0.316 µM, first compound 1 µM
[13] = second compound 1 µM, first compound 0.0316 µM
[14] = second compound 1 µM, first compound 0.1 µM
[15] = second compound 1 µM, first compound 0.316 µM
[16] = second compound 1 µM, first compound 1 µM
[17] = second compound 3.16 µM, first compound 0.0316 µM
[18] = second compound 3.16 µM, first compound 0.1 µM
[19] = second compound 3.16 µM, first compound 0.316 µM
[20] = second compound 3.16 µM, first compound 1 µM
[21] = second compound 10 µM, first compound 0.0316 µM
[22] = second compound 10 µM, first compound 0.1 µM
[23] = second compound 10 µM, first compound 0.316 µM
[24] = second compound 10 µM, first compound 1 µM
[25] = second compound 0.0316 µM, first compound 0.00316 µM
[26] = second compound 0.0316 µM, first compound 0.01 µM
[27] = second compound 0.1 µM, first compound 0.00316 µM
[28] = second compound 0.1 µM, first compound 0.01 µM
[29] = second compound 0.316 µM, first compound 0.00316 µM
[30] = second compound 0.316 µM, first compound 0.01 µM
[31] = second compound 1 µM, first compound 0.00316 µM
[32] = second compound 1 µM, first compound 0.01 µM
[33] = second compound 3.16 µM, first compound 0.00316 µM
[34] = second compound 3.16 µM, first compound 0.01 µM
[35] = second compound 10 µM, first compound 0.00316 µM
[36] = second compound 10 µM, first compound 0.01 µM
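Note: spheroids exposed to compounds for seven days.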
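Throughout, for viability, T/C: 100% = DMSO vehicle control viability.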

With CNCc1ccc(-c2[nH]c3cc(F)cc4c3c2CCNC4=O)cc1 + Nc1ccc(C#CCN(C(=O)Cc2ncc(C(F)(F)F)cc2C(F)(F)F)c2ccc(F)cc2)nn1 the IC50 (second compound 0.0316 µM) was greater than 10000 nM, the IC50 (second compound 0.1 µM) was greater than 10000 nM and the IC50 (second compound 0.316 µM) was greater than 10000 nM. For the same compound, the IC50 (second compound 1 µM) was greater than 10000 nM, the IC50 (second compound 3.16 µM) was greater than 10000 nM and the IC50 (second compound 10 µM) was greater than 10000 nM. The viability, T/C [1] was 109%, the viability, T/C [2] was 115% and the viability, T/C [3] was 123%. For the same compound, the viability, T/C [4] was 108%, the viability, T/C (second compound 0.0316 µM, first compound 3.16 µM) was 74.8% and the viability, T/C (second compound 0.0316 µM, first compound 10 µM) was 84.5%. The viability, T/C [5] was 133%, the viability, T/C [6] was 93% and the viability, T/C [7] was 104%. The viability, T/C [8] was 96.3%, the viability, T/C (second compound 0.1 µM, first compound 3.16 µM) was 107% and the viability, T/C (second compound 0.1 µM, first compound 10 µM) was 83.9%. It also gave a viability, T/C [9] of 144%, a viability, T/C [10] of 82.9% and a viability, T/C [11] of 78.2%. The viability, T/C [12] was 78.2%, the viability, T/C (second compound 0.316 µM, first compound 3.16 µM) was 81.2% and the viability, T/C (second compound 0.316 µM, first compound 10 µM) was 82.8%. The viability, T/C [13] was 128%, the viability, T/C [14] was 83.3% and the viability, T/C [15] was 99.3%. The viability, T/C [16] was 88.2%, the viability, T/C (second compound 1 µM, first compound 3.16 µM) was 92.3% and the viability, T/C (second compound 1 µM, first compound 10 µM) was 75.5%. It also gave a viability, T/C [17] of 116%, a viability, T/C [18] of 96.1% and a viability, T/C [19] of 134%. For the same compound, the viability, T/C [20] was 122%, the viability, T/C (second compound 3.16 µM, first compound 3.16 µM) was 106% and the viability, T/C (second compound 3.16 µM, first compound 10 µM) was 81.4%. For the same compound, the viability, T/C [21] was 125%, the viability, T/C [22] was 98.4% and the viability, T/C [23] was 104%. For the same compound, the viability, T/C [24] was 129%, the viability, T/C (second compound 10 µM, first compound 3.16 µM) was 108% and the viability, T/C (second compound 10 µM, first compound 10 µM) was 96.8%.

Compound COc1cccc(OCCCN)c1-c1cc(Nc2cnc(C#N)cn2)n[nH]1 + Nc1ccc(C#CCN(C(=O)Cc2ncc(C(F)(F)F)cc2C(F)(F)F)c2ccc(F)cc2)nn1 has an IC50 (second compound 0.0316 µM) of 136 nM, an IC50 (second compound 0.1 µM) of 161 nM and an IC50 (second compound 0.316 µM) of 93.3 nM. It also gave an IC50 (second compound 1 µM) of 32.9 nM, an IC50 (second compound 3.16 µM) of 29.3 nM and an IC50 (second compound 10 µM) greater than 1000 nM. It also gave a viability, T/C [25] of 100%, a viability, T/C [26] of 77.4% and a viability, T/C [1] of 60.2%. It also gave a viability, T/C [2] of 45.8%, a viability, T/C [3] of 51% and a viability, T/C [4] of 49%. For the same compound, the viability, T/C [27] was 98.5%, the viability, T/C [28] was 75.1% and the viability, T/C [5] was 57.9%. The viability, T/C [6] was 54.6%, the viability, T/C [7] was 45.8% and the viability, T/C [8] was 46.2%. It also gave a viability, T/C [29] of 99.6%, a viability, T/C [30] of 71.8% and a viability, T/C [9] of 49.9%. It also gave a viability, T/C [10] of 49.9%, a viability, T/C [11] of 56.8% and a viability, T/C [12] of 43.6%. For the same compound, the viability, T/C [31] was 79.1%, the viability, T/C [32] was 68% and the viability, T/C [13] was 50%. For the same compound, the viability, T/C [14] was 44.5%, the viability, T/C [15] was 49% and the viability, T/C [16] was 39.5%. It also gave a viability, T/C [33] of 76.8%, a viability, T/C [34] of 76.7% and a viability, T/C [17] of 47.7%. It also gave a viability, T/C [18] of 48.9%, a viability, T/C [19] of 54% and a viability, T/C [20] of 41.9%. It also gave a viability, T/C [35] of 85.8%, a viability, T/C [36] of 70.6% and a viability, T/C [21] of 55.8%. It also gave a viability, T/C [22] of 51.8%, a viability, T/C [23] of 61% and a viability, T/C [24] of 45.6%.

Cn1ncnc1[C@H]1c2n[nH]c(=O)c3cc(F)cc(c23)N[C@@H]1c1ccc(F)cc1 + Nc1ccc(C#CCN(C(=O)Cc2ncc(C(F)(F)F)cc2C(F)(F)F)c2ccc(F)cc2)nn1 was tested, and the IC50 (second compound 0.0316 µM) was greater than 100 nM, the IC50 (second compound 0.1 µM) was greater than 100 nM and the IC50 (second compound 0.316 µM) was greater than 100 nM. For the same compound, the IC50 (second compound 1 µM) was greater than 100 nM, the IC50 (second compound 3.16 µM) was greater than 100 nM and the IC50 (second compound 10 µM) was greater than 100 nM. The viability, T/C (second compound 0.0316 µM, first compound 0.000316 µM) was 96.8%, the viability, T/C (second compound 0.0316 µM, first compound 0.001 µM) was 121% and the viability, T/C [25] was 110%. The viability, T/C [26] was 85.7%, the viability, T/C [1] was 90.3% and the viability, T/C [2] was 87.4%. It also gave a viability, T/C (second compound 0.1 µM, first compound 0.000316 µM) of 176%, a viability, T/C (second compound 0.1 µM, first compound 0.001 µM) of 83.6% and a viability, T/C [27] of 92%. For the same compound, the viability, T/C [28] was 91.4%, the viability, T/C [5] was 105% and the viability, T/C [6] was 101%. For the same compound, the viability, T/C (second compound 0.316 µM, first compound 0.000316 µM) was 108%, the viability, T/C (second compound 0.316 µM, first compound 0.001 µM) was 102% and the viability, T/C [29] was 91.3%. The viability, T/C [30] was 79.6%, the viability, T/C [9] was 97.2% and the viability, T/C [10] was 73.2%. For the same compound, the viability, T/C (second compound 1 µM, first compound 0.000316 µM) was 127%, the viability, T/C (second compound 1 µM, first compound 0.001 µM) was 81.1% and the viability, T/C [31] was 124%. It also gave a viability, T/C [32] of 95.9%, a viability, T/C [13] of 67.4% and a viability, T/C [14] of 72.2%. For the same compound, the viability, T/C (second compound 3.16 µM, first compound 0.000316 µM) was 110%, the viability, T/C (second compound 3.16 µM, first compound 0.001 µM) was 124% and the viability, T/C [33] was 135%. It also gave a viability, T/C [34] of 77.1%, a viability, T/C [17] of 92.3% and a viability, T/C [18] of 87.2%. The viability, T/C (second compound 10 µM, first compound 0.000316 µM) was 122%, the viability, T/C (second compound 10 µM, first compound 0.001 µM) was 93.5% and the viability, T/C [35] was 113%. The viability, T/C [36] was 90.2%, the viability, T/C [21] was 115% and the viability, T/C [22] was 80.4%.

Source: PubChem BioAssay AID1963831 (Molecular Pharmacology Branch, DTP, NCI, 2024)
